Source: patent US10233190B2, “IDO inhibitors” (NewLink Genetics Corporation, priority 2011, dated 2019)

How the values were obtained:
[1] = test system: LLC murine tumor cells; experiment: In vivo antitumor activity, LLC tumor allograft, alone or with chemotherapy; conditions: for antitumor effect: LLC tumor in C57Bl6 mice, single agent or in combination with chemotherapy
[2] = Steady state plasma concentration from subcutaneous osmotic pumps

Row | Structure (SMILES) | antitumor effect [1] | long term survival fraction, mice tumor free after 60 days ([1]; LLC tumor, after 60 days) | median survival time (log rank test) ([1]; LLC tumor, single agent or in combination with cyclophosphamide) | average tumor volume over time ([1]; LLC tumor, single agent or in combination with cyclophosphamide 100 mg/kg i.p.) | steady state plasma concentration of drug ([2]; s.c. osmotic pumps, 200 uL of 30 mg/mL solution, 1 uL per hour for 8 days) [µM] | median survival time vs vehicle (log rank test) ([1]; LLC tumor, single agent) | average tumor volume over time vs vehicle (fitted exponential growth curves) ([1]; LLC tumor, single agent, osmotic pumps, p<0.0001) | steady state plasma concentration of drug ([2]; mouse, in vivo) [µM]
1 | OC(CC1c2ccccc2-c2cncn21)C1CCCCC1 (stereo not drawn) [Compound 1304, 1-cyclohexyl-2-(5H-imidazo[5,1-a]isoindol-5-yl)ethanol] | significant antitumor effect | 70-80% | statistically significant difference in median survival time | very sensitive to the effects of treatment | 0.5 to 3 |  |  | 
2 | OC(CC1c2c(F)cccc2-c2cncn21)C1CCCCC1 (stereo not drawn) [Compound 1357, 1-cyclohexyl-2-(6-fluoro-5H-imidazo[5,1-a]isoindol-5-yl)ethanol] | significant antitumor effect |  |  |  |  | statistically significant difference in median survival time | statistically significant differences | 0.5 to 3
